Structures can show the parent of a compound that is named as a salt.

Series [1] concerns the target T1, BCRP (Homo sapiens, UniProt Q9UNQ0).
T1 sequence (Q9UNQ0 1-655): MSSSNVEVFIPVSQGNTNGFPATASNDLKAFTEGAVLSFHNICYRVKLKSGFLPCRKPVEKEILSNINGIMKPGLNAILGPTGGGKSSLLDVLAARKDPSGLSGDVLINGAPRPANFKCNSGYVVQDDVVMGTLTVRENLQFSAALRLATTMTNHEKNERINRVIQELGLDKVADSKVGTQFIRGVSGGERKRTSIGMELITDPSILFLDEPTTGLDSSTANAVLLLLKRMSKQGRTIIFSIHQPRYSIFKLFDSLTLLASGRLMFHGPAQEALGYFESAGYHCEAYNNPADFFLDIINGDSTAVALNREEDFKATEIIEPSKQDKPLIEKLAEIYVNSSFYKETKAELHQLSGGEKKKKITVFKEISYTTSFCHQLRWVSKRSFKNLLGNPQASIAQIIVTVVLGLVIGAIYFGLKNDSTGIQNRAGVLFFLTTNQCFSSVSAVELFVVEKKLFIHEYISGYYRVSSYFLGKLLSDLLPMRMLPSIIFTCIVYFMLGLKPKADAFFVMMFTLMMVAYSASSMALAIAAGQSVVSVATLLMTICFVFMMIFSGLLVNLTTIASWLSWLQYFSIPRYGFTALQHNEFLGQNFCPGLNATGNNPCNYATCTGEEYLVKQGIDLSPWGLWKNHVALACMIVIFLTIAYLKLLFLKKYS
The conditions noted are these: estimated liver concentration divided by BCRP IC50 in MCF7/MX100 cells.

For series [2] the following is noted: read-out: Cmax (mean maximal plasma concentration), patients, ref Aravagiri et al. 1998, Hiemke et al. 2004, Suzuki et al. 2001, Yeung et al. 1993; cited from earlier work.
For series [3] the following is noted: calculated from mean tissue to plasma AUC ratios; ref [16]; Aravagiri et al. 2002; Aravagiri et al. 1999; Manjunath and Venkateswarlu 2005; Hopenwasser et al. 2004; Sgaragli et al. 1995; Miyazaki et al. 1986; cited from earlier work.
The target of series [4] is T1, BCRP. Put plainly: cell-based.

As to `CN(C)CCCN1c2ccccc2Sc2ccc(Cl)cc21` [Chlorpromazine, chlorpromazine hydrochloride], the “Cmax * liver:plasma partition ratio/IC50” value on BCRP [1] is 0.6. In addition, the Cmax in series [2] is 300 nM. Further, the “Liver:plasma partition ratio” value in series [3] is listed as 97.7 ^9. At BCRP [4], this compound came in with an IC50 of 52.2 µM.
Regarding `CN1CCN(C2=Nc3cc(Cl)ccc3Nc3ccccc32)CC1` [Clozapine, clozapine], in series [2], the Cmax was 2500 nM. At BCRP [4], inhibition was half-maximal at 42 µM (IC50).
Turning to `O=C(CCCN1CCC(O)(c2ccc(Cl)cc2)CC1)c1ccc(F)cc1` [Haloperidol], in series [2], the Cmax was 50 nM. This compound also came in with an IC50 at BCRP [4] above 100 µM.
`Cc1cc2c(s1)Nc1ccccc1N=C2N1CCN(C)CC1` [Olanzapine]: the Cmax in series [2] is 300 nM.
As for `Cc1nc2n(c(=O)c1CCN1CCC(c3noc4cc(F)ccc34)CC1)CCCC2O` (stereo not drawn) [Paliperidone, 9-hydroxy-risperidone], the “Cmax * liver:plasma partition ratio/IC50” value at BCRP [1] is reported as 0.5. In addition, in series [2], the Cmax was 400 nM. Moreover, in series [3], the “Liver:plasma partition ratio” value was 67.5 ^5. The same compound displayed a half-inhibitory concentration (IC50) on BCRP [4] of 51 µM.
For `OCCOCCN1CCN(C2=Nc3ccccc3Sc3ccccc32)CC1` [Quetiapine, quetiapine], the “Cmax * liver:plasma partition ratio/IC50” value at BCRP [1] was 0.04–0.10. In series [2], the Cmax is 800 nM. Besides, the “Liver:plasma partition ratio” value in series [3] is 3.5–8.7 ^8. For the same compound, the midpoint of inhibition at BCRP [4], the IC50, lay at 66.1 µM.
With `Cc1nc2n(c(=O)c1CCN1CCC(c3noc4cc(F)ccc34)CC1)CCCC2` [Risperidone], in series [2], the Cmax was 400 nM.

The IC50 is the concentration at which inhibition is half-maximal. A high value points to a need for much substance.
